Read-outs that look alike come from different tables or passages of the source.
Assays:
[1] = test system: serum cholesterol, LDL, HDL, triglycerides; test: Serum lipids and lipoprotein cholesterol in cholesterol-fed female New Zealand White rabbits; format: in vivo; settings: Oryctolagus cuniculus, po, 168 h, rabbit serum, diet 0.4%, 7 days
Description: (§1) Five independent experiments were performed in the following manner. […] Female New Zealand White rabbits (Hazelton, ~2.0-2.3 kg) were fed 0.2% cholesterol enriched rabbit chow (Purina #5322) with or without 0.4% MDL compound (except, MDL 108,804 at 0.26% and MDL 103,491 repeated at 0.6%). The MDL compounds were solubilized in 100% ethanol. MDL 108,208 was not soluble in 100% ethanol, but it was soluble in diethyl ether:ethanol (3:2 by volume). The chow was sprayed with the MDL mixtures and allowed to dry overnight in a chemical fume hood. Control chow was sprayed with ethanol. Rabbits were fed 100 grams food per day for 7 days (0.6% MDL 103,491 were fed for 14 days); water was available ad libitum. On day 7, rabbits (fasted overnight) were bled (~2 mL) from marginal ear vein; 0.6% MDL 103,491 treated rabbits were tested on day 14. They were euthanized by carbon dioxide overdose. The total body and liver weights were recorded in grams. Food consumption was recorded as grams.cndot.day^-1 .cndot.rabbit^-1. Aliquots of fresh serum were used for clinical chemistries, lipoprotein cholesterol determination, thiobarbituric acid reactive substances (TBARS) and compound and metabolite concentrations in serum. Livers (~5 gram aliquots) were frozen at -20° C. for compound and metabolite concentration determination at a later time.
Blood was allowed to clot at room temperature for 30 minutes. Serum was obtained after centrifugation for 10 min at 5° C. at 3000 rpm in a Beckman GPKR centrifuge with a GH rotor. Fresh serum was analyzed by a COBAS MIRA autoanalyzer (Roche Diagnostics) using Roche diagnostic reagents for total cholesterol (CHOL, kit #44334) and triglyceride (TG, kit #44120). Cholesterol and triglycerides were calculated as mg/dL.
Lipoprotein fractions (very low density lipoprotein, VLDL, low density lipoprotein, LDL and high density lipoprotein, HDL) were separated on a Sepharose 6HR column (1×30 cm, Pharmacia) attached to a Waters Powerline HPLC system. Fifty μL of serum were injected onto the column and eluted with phosphate buffered saline, pH 7.4, at a flow rate of 0.5 mL/min. Cholesterol reagent (Roche Diagnostics, kit #44334, diluted with 20 mL water and then with 20 mL of 0.9% saline) was added at 0.2 mL/min to the post column eluant and incubated in a knitted PFTE Kratos reaction coil (Applied Biosystems) at 37° C. for 5 min. Absorbance was measured at 500 nm. The lipoprotein subfractions were quantitated as follows: [formula]

[2] = test system: oxidation of serum lipids; test: TBARS assay, serum of cholesterol-fed rabbits; format: in vivo, female New Zealand White rabbits; settings: Oryctolagus cuniculus, po, 168 h; rabbit serum, diet 0.4%, 7 days; read-out: TBARS, percent of control
Description: as §1
TBARS are a qualitative indication of the oxidation of lipids in a sample. In this assay the oxidation of serum lipids is initiated with CuSO4, resulting in the formation of aldehydes, such as malondialdehyde (MDA). Upon incubation with thiobarbituric acid, the absorbance of the aldehydes can be detected at 530-540 nm. TBARS values which are lower than control serum values indicate the relative ability of a compound to inhibit the oxidation. TBARS were measured as follows: 50 μL of serum were mixed with 50 μL of 0.9% saline and 400 μL of a 5 mM CuSO4 solution and incubated at 37° C. for 5 hr. The reactions were stopped by addition of 1.0 mL of 20% trichloroacetic acid. Then 1.0 mL of 0.67% thiobarbituric acid in 0.05N sodium hydroxide was added, mixed, and the samples incubated for 30 min at 90° C. Samples were centrifuged briefly to pellet undissolved material, and the supernatants were transferred to a 96-well microtiter plate. Absorbances were measured at 540 nm using a Biotek model EL311 microplate reader. The nmoles of MDA produced were calculated from a standard curve of 0 to 10 nmoles of MDA prepared from malonaldehyde bis(dimethylacetal). Serum samples from treated rabbits were compared to serum samples from control rabbits that received no MDL compound.

[3] = Food consumption, body and liver weight in cholesterol-fed rabbits; format: in vivo, female New Zealand White rabbits; settings: diet 0.4%, 7 days
Description: as §1

[4] = HPLC quantitation of compound and metabolite concentration in rabbit serum and liver; format: in vivo, female New Zealand White rabbits; settings: diet 0.4%, 7 days
Description: as §1
Serum and liver concentrations of parent compounds and the metabolites, bisphenol and diphenoquinone, were determined by reverse phase HPLC using a Waters 990 Powerline system. Livers (1 gram) were homogenized with 5.0 mL PBS, pH 7.4, using a Polytron tissue homogenizer at setting 5 for 20-30 seconds. Serum or liver homogenates were extracted as follows: 100 μL of either serum or homogenate were added to 2.0 mL diethyl ether:ethanol (3:1) while vortexing the tube. The sample tubes were capped and centrifuged for 10 min at 5° C. at 3500 rpm in a Beckman GPKR centrifuge with a GH 3.7 rotor. The supernatants were transferred to clean tubes and dried under N2. Samples were reconstituted with 200 μL of acetonitrile:hexane:0.1M ammonium acetate (90:6.5:3.5, by vol.). Then, 100 μL were injected onto a Waters Deltapak C18-300 Å column, and eluted with an 83% acetonitrile:17% water mobile phase at a flow rate of 1.5 mL/min. Absrobances at the wavelengths of 240, 254, and 420 nm were recorded. Compound concentrations were calculated from known quantities of authentic parent compounds after correction for recovery; the range of recovery from spiked samples was 40 to 100%. The lowest detectable limit for this class of compounds was ~0.5 μg/mL. Concentrations were calculated as μg/mL of serum and μg/g of liver.

[5] = Solubility in solvent for spraying on chow; format: physicochemical
Description: as §1

For `COc1ccc([Si](C)(COc2cc(C(C)(C)C)c(O)c(C(C)(C)C)c2)c2ccc(OC)cc2)cc1` [MDL 108,208], which response vs control in vivo at 0.4 % ([1]; read-out: HDL cholesterol, percent of control) is on record?
The response vs control in vivo at 0.4 % was 97%.

And the response vs control in vivo at 0.4 % ([1]; read-out: LDL cholesterol, percent of control)?
The response vs control in vivo at 0.4 % was 117%.

What about the response vs control in vivo at 0.4 % ([1]; read-out: TRIG (triglycerides), percent of control) of the same compound?
The response vs control in vivo at 0.4 % was 107%.

What about the response vs control in vivo at 0.4 % ([1]; read-out: chol tot. (total cholesterol), percent of control) of the same compound?
Its response vs control in vivo at 0.4 % is 109%.

And the response vs control in vivo at 0.4 % [2]?
Its response vs control in vivo at 0.4 % is 89%.

What about the “food (grams eaten per day per rabbit), percent of control” value [3] of the same compound?
Its value is 100%.

And the “body wt., percent of control” value ([3]; rabbit)?
The value was 97%.

And the “lw/bw (liver weight/body weight), percent of control” value ([3]; rabbit)?
The value was 103%.

And the “Liver Parent = parent compound concentration” value ([4]; rabbit liver)?
Its value is 0 µg/g.

And the “Serum Parent = parent compound concentration” value ([4]; rabbit serum)?
The value was 0 µg/mL.

What about the “solubility in 100% ethanol” value ([5]; 100% ethanol) of the same compound?
Its value is “not soluble”.

And the “solubility in diethyl ether:ethanol” value ([5]; diethyl ether:ethanol (3:2 by volume))?
Its value is “soluble”.

— patent US5608095A, “Alkyl-4-silyl-phenols and esters thereof as antiatherosclerotic agents” (Hoechst Marion Roussel, Inc., priority 1996, dated 1997)
